Source: ChEMBL document CHEMBL1201862, “PubChem BioAssay data set” (2004)
Blank lines part the entries; values can stand above or below the molecule they belong to. The source made the active and inactive calls.

Key:
INS1 [1] = test: protection of INS-1E cells from cytokine death, dose response, ATP luminescence, dry powder (AID 488844); type: functional, cell-based; conditions: Rattus norvegicus
INS1 [2] = test: inhibitors of cytokine-induced nitrite release, dose response, cell-based, Griess absorbance, INS-1E, dry powder, set 2 (AID 488868); type: functional; conditions: Rattus norvegicus
INS1 [3] = test: protection from cytokine-induced mitochondrial depolarization, dose response, cell-based, INS-1E, JC-1 fluorescence ratio, dry powder (AID 488931); type: functional; conditions: Rattus norvegicus
[4] = biological target: Megakaryocyte-associated tyrosine-protein kinase (Homo sapiens, UniProt P42679); type: functional;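 also: affinity measured as one member of a kinase panel (Navigating the Kinome) against MATK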
[5] = biological target: Ribosomal protein S6 kinase beta-1 (Homo sapiens, UniProt P23443); type: functional;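 also: measured as one member of a kinome-wide profiling panel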
[6] = biological target: Serine/threonine-protein kinase pim-3 (Homo sapiens, UniProt Q86V86); type: functional;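 also: value obtained as one member of a broad kinase panel profiling effort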
[7] = biological target: MAP kinase-activated protein kinase 3 (Homo sapiens, UniProt Q16644); type: functional;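 also: value comes from a kinome-wide profiling panel in which MAPKAPK3 is one of the panel members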
Aurora kinase B = Aurora kinase B (Homo sapiens, UniProt Q96GD4); type: functional
[8] = biological target: Dual specificity tyrosine-phosphorylation-regulated kinase 1A (Homo sapiens, UniProt Q13627); type: functional;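 also: measured against DYRK1A as one member of a broad kinome profiling panel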
[9] = viability loss in Mcl1-dependent HMC-1-8 cells, dose response, selectivity assay for A1 inhibitor project, cell-based, luminescence, dry powder (AID 504415); type: functional; conditions: Homo sapiens

Sequence of Aurora kinase B (Q96GD4 whole entry): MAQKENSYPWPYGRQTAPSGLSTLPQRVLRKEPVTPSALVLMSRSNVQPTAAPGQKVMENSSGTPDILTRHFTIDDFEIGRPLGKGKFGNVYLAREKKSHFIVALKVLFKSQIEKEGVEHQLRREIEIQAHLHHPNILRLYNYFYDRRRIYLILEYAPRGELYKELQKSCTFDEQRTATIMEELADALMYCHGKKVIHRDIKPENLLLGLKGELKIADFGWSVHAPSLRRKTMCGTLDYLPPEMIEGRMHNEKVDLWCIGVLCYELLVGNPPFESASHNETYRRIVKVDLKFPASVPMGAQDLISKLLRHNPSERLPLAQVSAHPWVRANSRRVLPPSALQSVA
Sequence of Ribosomal protein S6 kinase beta-1 (P23443 whole entry): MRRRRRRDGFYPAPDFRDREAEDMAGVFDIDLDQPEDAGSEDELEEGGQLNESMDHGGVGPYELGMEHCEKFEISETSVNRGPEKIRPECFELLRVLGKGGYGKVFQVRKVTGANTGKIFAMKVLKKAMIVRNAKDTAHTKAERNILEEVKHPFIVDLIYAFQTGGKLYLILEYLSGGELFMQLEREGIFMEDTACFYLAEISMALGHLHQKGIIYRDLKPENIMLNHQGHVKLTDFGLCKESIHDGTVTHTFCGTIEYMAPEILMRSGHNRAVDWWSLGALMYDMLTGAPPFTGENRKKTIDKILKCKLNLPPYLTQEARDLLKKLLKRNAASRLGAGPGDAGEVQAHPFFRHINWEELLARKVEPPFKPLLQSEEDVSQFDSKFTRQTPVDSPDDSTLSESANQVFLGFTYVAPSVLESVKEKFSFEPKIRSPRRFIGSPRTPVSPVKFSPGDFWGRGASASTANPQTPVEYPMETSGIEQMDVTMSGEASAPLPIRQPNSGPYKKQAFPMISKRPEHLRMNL
Sequence of Megakaryocyte-associated tyrosine-protein kinase (P42679 whole entry): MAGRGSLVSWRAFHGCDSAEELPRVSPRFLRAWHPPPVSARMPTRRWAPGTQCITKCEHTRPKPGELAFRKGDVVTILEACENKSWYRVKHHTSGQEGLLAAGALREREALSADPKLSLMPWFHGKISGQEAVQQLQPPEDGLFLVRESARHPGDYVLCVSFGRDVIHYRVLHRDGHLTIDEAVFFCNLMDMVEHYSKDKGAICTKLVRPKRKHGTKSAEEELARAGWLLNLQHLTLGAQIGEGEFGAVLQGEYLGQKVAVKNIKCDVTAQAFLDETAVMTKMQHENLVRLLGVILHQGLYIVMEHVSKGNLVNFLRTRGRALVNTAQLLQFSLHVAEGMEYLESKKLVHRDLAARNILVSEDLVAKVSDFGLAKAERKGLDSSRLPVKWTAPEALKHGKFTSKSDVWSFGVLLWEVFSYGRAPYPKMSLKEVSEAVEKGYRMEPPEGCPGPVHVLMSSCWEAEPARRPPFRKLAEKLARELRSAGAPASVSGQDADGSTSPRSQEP
Sequence of MAP kinase-activated protein kinase 3 (Q16644 whole entry): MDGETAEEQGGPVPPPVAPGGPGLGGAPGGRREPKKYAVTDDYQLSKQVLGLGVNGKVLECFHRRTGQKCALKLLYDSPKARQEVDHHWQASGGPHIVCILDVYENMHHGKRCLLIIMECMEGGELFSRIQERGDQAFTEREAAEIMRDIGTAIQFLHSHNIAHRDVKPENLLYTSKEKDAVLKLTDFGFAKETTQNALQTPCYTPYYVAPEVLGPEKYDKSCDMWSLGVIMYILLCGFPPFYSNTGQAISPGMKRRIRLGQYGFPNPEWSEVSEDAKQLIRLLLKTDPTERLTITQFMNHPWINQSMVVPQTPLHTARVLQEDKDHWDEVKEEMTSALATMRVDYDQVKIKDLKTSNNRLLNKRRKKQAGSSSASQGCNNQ

Structure (SMILES): C[C@@H]1CN([C@@H](C)CO)C(=O)c2cccc(NC(=O)Nc3ccc(F)cc3)c2O[C@H]1CN(C)S(=O)(=O)c1ccc(Cl)cc1
AC50 (INS1 [1]): 7.24 µM (active) | AC50 (INS1 [2]): 27.4 µM (active) | AC50 (INS1 [3]): 95.8 µM (active)

Ki [4]: 2 µM (active) | Ki [5]: 2 µM (active) | Ki [6]: 5.01 µM (active) | Ki [7]: 7.94 µM (active) | Ki (Aurora kinase B): 6.31 µM (active) | Ki [8]: 3.16 µM (active)
Structure (SMILES): Cc1c(F)c(N2CCC(N)C2)nc2[nH]cc(C(=O)O)c(=O)c12 (stereo not given)

Structure (SMILES): CCSc1c([N+](=O)[O-])c(=O)oc2ccccc12
AC50 [9]: 23.4 µM (active)
